In patent publication US11730746B2, “17beta-heterocyclyl-digitalis like compounds for the treatment of heart failure” (priority 2018, dated 2023):

Legend:
guinea pig = test: Haemodynamics: inotropic and lethal dose in guinea pig; assay type: in vivo
Description: Guinea-pigs (400-450 g) were anaesthetized with urethane (1.5 g/kg ip). A microtip pressure transducer was introduced into the left ventricle through the right carotid artery to measure ventricular pressure (LVP); the transducer was coupled with a transducer amplifier. Recordings were fed to a polygraph and analyzed. A polythene cannula was inserted into a jugular vein for drug infusion. After a stabilization period, the test substance was injected at the rate of 0.16 ml/min for 90 min (Micheletti R et al. J Pharmacol Exp Ther 2002; 303:592-600).
The following parameters were obtained: heart rate (HR), left ventricular pressure (LVP), maximal velocity of pressure rise (+dP/dtmax) and decay (−dP/dtmax), ECG. For inotropy, the time elapsed until +dP/dtmax increased by 80% was identified in order to determine the ED80 (dose increasing basal +dP/dtmax by 80%). The time to the maximum increase in +dP/dtmax was also identified to determine the maximum effective dose, EDmax. Lusitropy was characterized by the dose inducing the maximum decrease in −dP/dtmax, (EDmax). As indexes of toxicity, the dose administered until the onset of arrhythmias and the dose inducing death (LD) were calculated. The safety ratio for the tested compound was also calculated as the ratio between LD and ED80.

SERCA2a = molecular target: T1, SERCA2a (Canis lupus familiaris, UniProt O46674); conditions: literature (Rocchetti 2005; Ferrandi 2013); cited from earlier work
T1 construct: pre-incubated with 2 μg of microsomes; from tissue; host or cells: dog heart left ventricle, SR microsomes
T1 sequence (O46674 whole entry): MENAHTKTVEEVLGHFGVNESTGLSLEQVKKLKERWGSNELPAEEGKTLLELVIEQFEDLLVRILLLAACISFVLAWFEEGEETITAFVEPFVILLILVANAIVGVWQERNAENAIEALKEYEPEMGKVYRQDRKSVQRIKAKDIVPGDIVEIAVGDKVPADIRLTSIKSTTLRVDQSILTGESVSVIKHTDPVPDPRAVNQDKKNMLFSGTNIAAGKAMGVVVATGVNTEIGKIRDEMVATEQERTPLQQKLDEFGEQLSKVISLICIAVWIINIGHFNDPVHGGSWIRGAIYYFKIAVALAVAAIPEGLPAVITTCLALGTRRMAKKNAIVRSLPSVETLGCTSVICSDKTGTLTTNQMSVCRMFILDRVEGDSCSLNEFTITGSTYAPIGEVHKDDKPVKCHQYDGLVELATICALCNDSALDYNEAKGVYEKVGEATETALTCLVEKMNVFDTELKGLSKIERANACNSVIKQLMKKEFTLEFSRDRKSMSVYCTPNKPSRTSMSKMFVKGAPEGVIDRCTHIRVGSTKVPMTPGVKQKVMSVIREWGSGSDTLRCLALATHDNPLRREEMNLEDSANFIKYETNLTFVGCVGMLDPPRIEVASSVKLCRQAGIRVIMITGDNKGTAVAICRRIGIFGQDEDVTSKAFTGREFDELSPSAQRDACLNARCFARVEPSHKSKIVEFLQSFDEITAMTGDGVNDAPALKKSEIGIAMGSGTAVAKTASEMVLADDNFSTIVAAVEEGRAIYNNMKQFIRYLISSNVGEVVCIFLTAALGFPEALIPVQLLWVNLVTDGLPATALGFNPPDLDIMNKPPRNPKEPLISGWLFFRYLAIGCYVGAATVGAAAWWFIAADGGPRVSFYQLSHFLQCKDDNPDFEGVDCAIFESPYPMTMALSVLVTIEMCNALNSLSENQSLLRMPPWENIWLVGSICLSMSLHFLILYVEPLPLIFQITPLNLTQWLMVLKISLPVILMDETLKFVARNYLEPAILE

STZ diabetic rats = test: Haemodynamics in streptozotocin diabetic rats (echocardiography); assay type: in vivo, rat; conditions: 20 mg/kg os, after treatment, mean ± SD, n = 12
Description: Sprague Dawley male rats (150-175 g) were made diabetic by a single injection into the tail vein of a solution of streptozotocin (STZ, 50 mg/kg, Sigma-Aldrich), freshly prepared in 0.1 M sodium citrate buffer, pH 4.5. Control rats received citrate buffer. Fasting glycaemia was measured after 1 week and rats with values >400 mg/dl were considered diabetic.
Eight-nine weeks after STZ injection, rats were submitted to transthoracic echocardiographic and Doppler evaluation performed under pentobarbital anesthesia. Two-dimensionally guided M-mode recordings were used to obtain short-axis measurements of left ventricular end-diastolic diameter (LVEDD), left ventricular end-systolic diameter (LVESD), posterior (PW) and septal (SW) diastolic wall thickness according to the American Society of Echocardiography guidelines (Lang R M et al. Eur J Echocardiography 2006; 7:79-108). Fractional shortening was calculated as FS=(LVEDD-LVESD)/LVEDD. Relative wall thickness was calculated as PWTd+IVSTd/LVEDD.
Mitral inflow was measured by pulsed Doppler at the tips of mitral leaflets from an apical 4-chamber view to obtain early and late filling velocities (E, A) and deceleration time of early filling velocity (DT). The deceleration slope was calculated as E/DT ratio. The mitral deceleration index was calculated as DT/E ratio.
Tissue Doppler Imaging (TDI) was evaluated from the apical 4-chamber view to record septal mitral annular movements, i.e., peak myocardial systolic (s′) and early and late diastolic velocity (e′ and a′).
Compound CVie 101 was orally administered to STZ injected rats at the dose of 20 mg/kg and echocardiographic parameters were measured after 1 h.

dog renal Na,K-ATPase = molecular target: T2, dog renal Na,K-ATPase (Canis lupus familiaris, UniProt P50997); test: Inhibition of dog renal Na,K-ATPase activity (32P-ATP release); assay type: biochemical
T2 construct: incubated with 0.3 μg of purified dog kidney enzyme; from tissue; host or cells: dog kidney outer medulla
Description: Kidneys were sliced and the outer medulla was dissected, pooled and suspended (1 g/10 ml) in a sucrose-histidine solution, containing 250 mM sucrose, 30 mM histidine and 5 mM EDTA, pH 7.2 and homogenized. […] The pellet was suspended in the sucrose-histidine buffer and incubated for 20 min with a sodium-dodecyl-sulphate (SDS) solution dissolved in a gradient buffer, containing 25 mM imidazole and 1 mM EDTA, pH 7.5. […] The pellet was suspended in the gradient buffer.
Increasing concentrations of the standard ouabain, or tested compound, were incubated with 0.3 μg of purified dog kidney enzyme for 10 min at 37° C. in 120 μl final volume of a medium, containing 140 mM NaCl, 3 mM MgCl2, 50 mM Hepes-Tris, 3 mM ATP, pH 7.5. […] The inhibitory activity was expressed as percent of the control samples carried out in the absence of ouabain or tested compound.

[1] = literature (Packer 2016, 2018); cited from earlier work
[2] = tested on: mouse (Albino Swiss CD-1); conditions: i.v., data from literature; cited from earlier work

SMILES: C[C@H]1O[C@@H](O[C@H]2[C@@H](O)C[C@H](O[C@H]3[C@@H](O)C[C@H](O[C@H]4CC[C@@]5(C)[C@H](CC[C@@H]6[C@@H]5C[C@@H](O)[C@]5(C)[C@@H](C7=CC(=O)OC7)CC[C@]65O)C4)O[C@@H]3C)O[C@@H]2C)C[C@H](O)[C@@H]1O [Digoxin, reference compound]
- ED80 (guinea pig; guinea pig, in vivo): 0.69 mg/kg
- Lethal dose (guinea pig; i.v. infusion […]): 1.20 mg/kg
- SERCA2a activity (SERCA2a): failed to stimulate
- A (late filling velocity of mitral inflow) (STZ diabetic rats): 0.92 ± 0.1 m/s
- A′ (TDI late relaxation velocity) (STZ diabetic rats): 35.8 ± 5 cm/s
- CO (cardiac output) (STZ diabetic rats): 246.8 ± 72 mL/min
- DT (deceleration time of E wave) (STZ diabetic rats): 39.2 ± 9.34 ms
- E (early filling velocity of mitral inflow) (STZ diabetic rats): 1.02 ± 0.13 m/s
- E/DT (deceleration slope) (STZ diabetic rats): 27.9 ± 9.8 m/s2
- E′ (TDI early relaxation velocity) (STZ diabetic rats): 23.7 ± 1.35 cm/s
- FS (fractional shortening) (STZ diabetic rats): 47.2 ± 3.24 %
- HR (heart rate) (STZ diabetic rats): 308 ± 39 beat/min
- SV (stroke volume) (STZ diabetic rats): 0.80 ± 0.19 ml/beat
- S′ (TDI contraction velocity) (STZ diabetic rats): 26.7 ± 2.77 cm/s
- IC50 (dog renal Na,K-ATPase): 300 nM
- serum concentration ranges at which digoxin displays its beneficial effects [1]: 0.5 to 0.7 ng/mL
- serum threshold level above which increased risk of death, mainly due to arrhythmias, has been observed [1]: 0.9 ng/mL
- LD50 [2]: 7.7 mg/kg
